Experimental data: ChEMBL document CHEMBL4411299, “A class of novel tubulin polymerization inhibitors exert effective anti-tumor activity via mitotic catastrophe” (Eur J Med Chem, 2019)
Active and inactive are the calls of the source. No cut-off for these calls is given here.

Key:
HepG2 = experiment: Antiproliferative activity against human HepG2 cells after 48 hrs by MTT assay; assay type: functional; conditions: HepG2, 48 h
A549 = experiment: Antiproliferative activity against human A549 cells after 48 hrs by MTT assay; assay type: functional; conditions: A549, 48 h
HT-29 = experiment: Antiproliferative activity against human HT-29 cells after 48 hrs by MTT assay; assay type: functional; conditions: HT-29, 48 h
HeLa [1] = experiment: Antiproliferative activity against human HeLa cells after 48 hrs by MTT assay; assay type: functional
MDA-MB-231 = experiment: Antiproliferative activity against human MDA-MB-231 cells after 48 hrs by MTT assay; assay type: functional; conditions: MDA-MB-231, 48 h
A2780 = experiment: Antiproliferative activity against human A2780 cells after 48 hrs by MTT assay; assay type: functional; conditions: A2780, 48 h
HeLa [2] = experiment: Induction of apoptosis in human HeLa cells assessed as viable cells at 0.05 uM after 24 hrs by Annexin V-FITC/propidium iodide staining-based flow cytometric analysis (reference value: 92.8%); assay type: functional; conditions: read-out: Activity
HeLa [3] = experiment: Induction of apoptosis in human HeLa cells assessed as early apoptotic cells at 0.05 uM after 24 hrs by Annexin V-FITC/propidium iodide staining-based flow cytometric analysis (reference value: 3.65%); assay type: functional
HeLa [4] = experiment: Induction of apoptosis in human HeLa cells assessed as late apoptotic cells at 0.05 uM after 24 hrs by Annexin V-FITC/propidium iodide staining-based flow cytometric analysis (reference value: 3.51%); assay type: functional
HeLa [5] = experiment: Induction of apoptosis in human HeLa cells assessed as necrotic cells at 0.05 uM after 24 hrs by Annexin V-FITC/propidium iodide staining-based flow cytometric analysis (reference value: 0.05%); assay type: functional
HeLa [6] = experiment: Antitumor activity against human HeLa cells xenografted in nude mouse assessed as tumor growth inhibition at 10 mg/kg, iv administered every other day up to 20 days relative to control; assay type: functional; conditions: 480 h, read-out: TGI
HeLa [7] = experiment: Antitumor activity against human HeLa cells xenografted in nude mouse assessed as tumor weight at 10 mg/kg, iv administered every other day up to 20 days (reference value: 1.014 +/- 0.116g); assay type: functional
Tubulin (Homo sapiens) [8] = biological target: T1, Tubulin (Homo sapiens) (UniProt P68371+Q9H4B7+P0DPH7+P68366+Q13509+Q71U36+P04350+Q3ZCM7+P07437+P68363+Q9BQE3+Q6PEY2+Q13885+Q9BVA1+Q9BUF5); experiment: Induction of tubulin polymerization in human HeLa cells assessed as increase in density of microtubule polymerization at 0.05 after 12 hrs by DAPI staining-based confocal fluorescence microscopic analysis; assay type: cell-based
Tubulin (Homo sapiens) [9] = biological target: T1, Tubulin (Homo sapiens); experiment: Induction of tubulin polymerization in human HeLa cells assessed as induction of long thick microtubule bundles at 0.05 after 12 hrs by DAPI staining-based confocal fluorescence microscopic analysis; assay type: cell-based
HeLa [10] = experiment: Inhibition of colony formation in human HeLa cells after 2 weeks by crystal violet staining-based assay; assay type: functional, cell-based
HeLa [11] = experiment: Induction of apoptosis in human HeLa cells assessed as viable cells at 0.2 uM after 24 hrs by Annexin V-FITC/propidium iodide staining-based flow cytometric analysis (reference value: 92.8%); assay type: functional; conditions: read-out: Activity
HeLa [12] = experiment: Induction of apoptosis in human HeLa cells assessed as early apoptotic cells at 0.2 uM after 24 hrs by Annexin V-FITC/propidium iodide staining-based flow cytometric analysis (reference value: 3.65%); assay type: functional
HeLa [13] = experiment: Induction of apoptosis in human HeLa cells assessed as late apoptotic cells at 0.2 uM after 24 hrs by Annexin V-FITC/propidium iodide staining-based flow cytometric analysis (reference value: 3.51%); assay type: functional
HeLa [14] = experiment: Induction of apoptosis in human HeLa cells assessed as necrotic cells at 0.2 uM after 24 hrs by Annexin V-FITC/propidium iodide staining-based flow cytometric analysis (reference value: 0.05%); assay type: functional
HeLa [15] = experiment: Induction of apoptosis in human HeLa cells assessed as viable cells at 0.4 uM after 24 hrs by Annexin V-FITC/propidium iodide staining-based flow cytometric analysis (reference value: 92.8%); assay type: functional; conditions: read-out: Activity
HeLa [16] = experiment: Induction of apoptosis in human HeLa cells assessed as early apoptotic cells at 0.4 uM after 24 hrs by Annexin V-FITC/propidium iodide staining-based flow cytometric analysis (reference value: 3.65%); assay type: functional
HeLa [17] = experiment: Induction of apoptosis in human HeLa cells assessed as late apoptotic cells at 0.4 uM after 24 hrs by Annexin V-FITC/propidium iodide staining-based flow cytometric analysis (reference value: 3.51%); assay type: functional
HeLa [18] = experiment: Induction of apoptosis in human HeLa cells assessed as necrotic cells at 0.4 uM after 24 hrs by Annexin V-FITC/propidium iodide staining-based flow cytometric analysis (reference value: 0.05%); assay type: functional
HeLa [19] = experiment: Cell cycle arrest in human HeLa cells assessed as accumulation of cells at G2/M phase at 0.1 to 2 uM after 6 to 24 hrs by propidium iodide staining-based flow cytometric analysis; assay type: functional

Row | SMILES | GI50 (HepG2) [µM] | GI50 (A549) [µM] | GI50 (HT-29) [µM] | GI50 (HeLa [1]) [µM] | GI50 (MDA-MB-231) [µM] | GI50 (A2780) [µM] | further results
1 | CCCOC(=O)N1N=C(c2cccc(O)c2)CC1c1cc(OC)c(OC)c(OC)c1 (stereo unspecified) | > 10 | > 10 | 15.2 | > 10 | 10 | 11.1 | 
2 | COC(=O)N1N=C(c2ccccc2)CC1c1ccc(OC)c(OC)c1 (stereo unspecified) | 9.15 | 7.32 | 10.7 | 5.48 | 8.94 | 29.9 | 
3 | COC(=O)N1N=C(c2ccccc2)CC1c1ccccc1 (stereo unspecified) | > 10 | > 10 | > 10 | > 10 | > 10 | > 10 | 
4 | COc1ccc(/C=C\c2cc(OC)c(OC)c(OC)c2)cc1OP(=O)([O-])[O-].[Na+].[Na+] [FOSBRETABULIN DISODIUM] | 0.19 | 0.16 | 0.062 | 0.019 | 0.065 | 0.32 | viability at 0.05 µM (HeLa [2]): 75.4%; Activity (HeLa [3]): 18.9%; Activity (HeLa [4]): 5.08%; Activity (HeLa [5]): 0.6%; inhibition in vivo at 10 mg/kg (HeLa [6]): 79.4%; Activity (HeLa [7]): 0.187 g
5 | COC(=O)N1N=C(c2ccccc2)CC1c1ccc(OC)c(O)c1 (stereo unspecified) | 9.81 | 8.93 | 3.5 | 7.52 | 14.5 | 4.96 | 
6 | COC(=O)N1N=C(c2ccc(OC)c(OC)c2)CC1c1cc(OC)c(OC)c(OC)c1 (stereo unspecified) | 4.21 | 3.93 | 9.2 | 3.39 | 9.9 | 11.4 | 
7 | CC(=O)O[C@H]1C(=O)[C@@]2(C)[C@H]([C@H](OC(=O)c3ccccc3)[C@]3(O)C[C@H](OC(=O)[C@H](O)[C@@H](NC(=O)c4ccccc4)c4ccccc4)C(C)=C1C3(C)C)[C@]1(OC(C)=O)CO[C@@H]1C[C@@H]2O |  |  |  |  |  |  | Activity (Tubulin (Homo sapiens) [8]): Active; Activity (Tubulin (Homo sapiens) [9]): Active
8 | COC(=O)N1N=C(c2ccccc2)CC1c1ccc(OC)cc1 (stereo unspecified) | 12 | 15.3 | > 10 | 12.7 | > 10 | > 10 | 
9 | COC(=O)N1N=C(c2cccc(Cl)c2)CC1c1cc(OC)c(OC)c(OC)c1 (stereo unspecified) | 1.24 | 0.34 | 0.14 | 0.16 | 0.11 | 1.54 | inhibition (HeLa [10]): Dose-dependent effect; viability at 0.2 µM (HeLa [11]): 93%; Activity (HeLa [12]): 3.3%; Activity (HeLa [13]): 3.19%; Activity (HeLa [14]): 0.481%; viability at 0.4 µM (HeLa [15]): 93.1%; Activity (HeLa [16]): 3.26%; Activity (HeLa [17]): 3.13%; Activity (HeLa [18]): 0.511%; Activity (HeLa [19]): Active
10 | COC(=O)N1N=C(c2cc(OC)c(OC)c(OC)c2)CC1c1cc(OC)c(OC)c(OC)c1 (stereo unspecified) | 9.72 | 12.6 | 7.85 | 5.68 | 11.1 | 14 | 
11 | COC(=O)N1N=C(c2ccccc2)CC1c1cc(OC)c(OC)cc1OC (stereo unspecified) | 6.53 | 5.32 | 14.9 | 2.47 | > 10 | > 10 | 
12 | COC(=O)N1N=C(c2ccccc2)CC1c1c(OC)cc(OC)cc1OC (stereo unspecified) | 7.49 | 5.88 | > 10 | 3.49 | 10.6 | > 10 | 

Further lines, with some results ahead:

Row | GI50 (HepG2) [µM] | GI50 (A549) [µM] | GI50 (HT-29) [µM] | GI50 (HeLa [1]) [µM] | GI50 (MDA-MB-231) [µM] | GI50 (A2780) [µM] | SMILES | further results
13 | > 10 | > 10 | 12.7 | > 10 | 20.4 | 11.7 | CCCOC(=O)N1N=C(c2ccc(OC)cc2)CC1c1cc(OC)c(OC)c(OC)c1 (stereo unspecified) | 
14 | 9.4 | 4.69 | 6.73 | 8.71 | 2.66 | 9.27 | CCOC(=O)N1N=C(c2ccc(OC)cc2)CC1c1cc(OC)c(OC)c(OC)c1 (stereo unspecified) | 
15 | 5.95 | 6.68 | 8.92 | 8.23 | 5.61 | 6.72 | CCOC(=O)N1N=C(c2ccccc2)CC1c1cc(OC)c(OC)c(OC)c1 (stereo unspecified) | 
16 | 7.82 | 8.57 | 6.77 | 1.14 | 7.15 | 2.52 | COC(=O)N1N=C(c2ccc(O)cc2)CC1c1cc(OC)c(OC)c(OC)c1 (stereo unspecified) | 
17 | > 10 | > 10 | > 10 | > 10 | 12.5 | > 10 | CCCOC(=O)N1N=C(c2cccc(OC)c2)CC1c1cc(OC)c(OC)c(OC)c1 (stereo unspecified) | 
18 | 1.79 | 5.12 | 11.6 | 3.28 | 4.71 | 9.75 | CCOC(=O)N1N=C(c2cccc(O)c2)CC1c1cc(OC)c(OC)c(OC)c1 (stereo unspecified) | 
19 | 8.36 | 5.29 | 4.45 | 4.97 | 0.19 | 0.76 | CCOc1cccc(C2=NN(C(=O)OC)C(c3cc(OC)c(OC)c(OC)c3)C2)c1 (stereo unspecified) | 
20 | > 10 | > 10 | > 10 | > 10 | 14.4 | 10.8 | CCCOC(=O)N1N=C(c2ccccc2)CC1c1cc(OC)c(OC)c(OC)c1 (stereo unspecified) | 
21 | > 10 | > 10 | > 10 | > 10 | > 10 | > 10 | COc1cc(C2CC(c3ccccc3)=NN2C(=O)OCc2ccccc2)cc(OC)c1OC (stereo unspecified) | 
22 | 3.95 | 2.88 | 6.26 | 2.18 | 1.08 | 2.77 | COC(=O)N1N=C(c2ccccc2)CC1c1cc(OC)c(OC)c(OC)c1 (stereo unspecified) | 
23 | 0.65 | 3.17 | 1.35 | 1.97 | 0.74 | 0.81 | COC(=O)N1N=C(c2cccc(O)c2)CC1c1cc(OC)c(OC)c(OC)c1 (stereo unspecified) | 
24 | 1.71 | 3.4 | 2.55 | 2.59 | 1.99 | 5 | COC(=O)N1N=C(c2ccc(OC)cc2)CC1c1cc(OC)c(OC)c(OC)c1 (stereo unspecified) | 
25 | > 10 | > 10 | > 10 | > 10 | > 10 | > 10 | COc1cc(C2CC(c3cccc(O)c3)=NN2C(=O)OCc2ccccc2)cc(OC)c1OC (stereo unspecified) | 
26 | 1.87 | 2.59 | 1.3 | 1.53 | 0.35 | 2.78 | COC(=O)N1N=C(c2cccc(OC)c2)CC1c1cc(OC)c(OC)c(OC)c1 (stereo unspecified) | 
27 | > 10 | > 10 | > 10 | > 10 | > 10 | > 10 | COc1ccc(C2=NN(C(=O)OCc3ccccc3)C(c3cc(OC)c(OC)c(OC)c3)C2)cc1 (stereo unspecified) | 
28 | > 10 | > 10 | > 10 | > 10 | > 10 | > 10 | COc1cccc(C2=NN(C(=O)OCc3ccccc3)C(c3cc(OC)c(OC)c(OC)c3)C2)c1 (stereo unspecified) | 
29 | 5.82 | 5.92 | 7.86 | 4.11 | 9.1 | 7.3 | CCOC(=O)N1N=C(c2cccc(OC)c2)CC1c1cc(OC)c(OC)c(OC)c1 (stereo unspecified) | 
